Chromatographic logP and log p data for 57 compounds are collected here from patent US20110245284A1, “Alkoxy- and Alkylthio-Substituted Anilinopyrimidines” (Bayer CropScience AG, priority 2008, published 2011).

This data set is described as follows: logP by LC-MS on reversed-phase columns (C 18), method [b], acidic range pH 2.7. The following applies: for chromatographic logP: pH 2.7, log p. In kind it is physicochemical. As for the experimental part:
The logP values were determined in accordance with EEC Directive 79/831 Annex V.A8 by HPLC (High Performance Liquid Chromatography) on reversed-phase columns (C 18), using the methods below:
[b] The LC-MS determination in the acidic range is carried out at pH 2.7 using the mobile phases 0.1% aqueous formic acid and acetonitrile (contains 0.1% formic acid), linear gradient from 10% acetonitrile to 95% acetonitrile.

[1] abbreviates: method [b], LC-MS, acidic range pH 2.7.

Compound `CCS(=O)(=O)c1ccc(Nc2ncc(Cl)c(NC3CC3)n2)cc1` [Example 54] displayed a chromatographic logP of 2.04. Still for that read-out and setting: the same measure for `CCCCCNc1nc(Nc2cccc(COC)c2)ncc1Cl` [Example 147]: 2.41. With `FC(F)(F)c1cnc(Nc2cccc(COc3ccc4c(c3)OCO4)c2)nc1NC1CC1` [Example 227], the log p (pH 2.7) is 3.9[b]. Regarding `FC(F)(F)OCCOc1cccc(Nc2ncc(Cl)c(NC3CC3)n2)c1` [Example 241], the chromatographic logP was 2.72.

Regarding `CCSC(C)c1cccc(Nc2ncc(C(F)(F)F)c(NC3CCC3)n2)c1` (stereo not drawn) [Example 36], the log p (pH 2.7) was 4.75[b]. Same read-out and setting: the same measure for `COC(c1cccc(Nc2ncc(Cl)c(NCC(F)F)n2)c1)C(F)(F)F` (stereo not drawn) [Example 23]: 2.93[b]. For `CCSC(C)c1cccc(Nc2ncc(Cl)c(NC3CC3CC)n2)c1` (stereo not drawn) [Example 196], the log p under setting [1] was 3.99[b]. On to `CCCC(C)S(=O)(=O)C(C)c1cccc(Nc2ncc(C(F)(F)F)c(NC3CC3)n2)c1` (stereo not drawn) [Example 168], for which, where the note is “pH 2.7”, the log p was 3.47[b]. Still for that read-out and setting: the same measure for `COCC(C)Oc1ccc(Nc2ncc(Br)c(NC3CC(C)C3)n2)cc1` (stereo not drawn) [Example 213]: 2.27[b]; for `COCc1cccc(Nc2ncc(Cl)c(N(C)CCCN3CCCCCC3=O)n2)c1` [Example 69]: 1.91[b]. Consider `CC[S+]([O-])C(C)c1cccc(Nc2ncc(C(F)(F)F)c(NC3CCCC3)n2)c1` (stereo not drawn) [Example 42], for which the log p (pH 2.7) is 2.87[b]. Consider `CCS(=O)(=O)C(C)c1cccc(Nc2ncc(Br)c(NC3CCC3)n2)c1` (stereo not drawn) [Example 153], for which, where the note is “pH 2.7”, the log p was 2.03[b]. In the case of `CCC1CC1Nc1nc(Nc2cccc(C(C)OC)c2)ncc1Cl` (stereo not drawn) [Example 197], the log p under setting [1] is 2.76[b]. In the case of `CCOCCOCc1cccc(Nc2ncc(Cl)c(NC3CC3)n2)c1` [Example 248], the chromatographic logP amounted to 2.03.

As for `COC(c1cccc(Nc2ncc(Br)c(NC3CCC3)n2)c1)C(F)(F)F` (stereo not drawn) [Example 10], the log p (pH 2.7) was 3[b]. Take `O=S(=O)(CCCl)c1cc(Nc2ncc(Cl)c(NC3CC3)n2)ccc1Cl` [Example 49]: the log p under setting [1] was 2.67[b]. Turning to `C=C(C)CSc1cccc(Nc2ncc(Br)c(NC3CC3)n2)c1` [Example 3], the log p (pH 2.7) was 4.25[b]. Still for that read-out and setting: the same measure for `Fc1cccc(Nc2ncc(Cl)c(NC3CC3)n2)c1` [Example 86]: 1.87[b]. Turning to `CCOCCOc1cc(Nc2ncc(Cl)c(NC3CC3)n2)ccc1C` [Example 48], under setting [1], the log p is 2.23[b]. In the case of `CCCN(C)c1nc(Nc2cccc(COC)c2)ncc1Cl` [Example 141], the chromatographic logP amounted to 2.55. Consider `CC[S+]([O-])C(C)c1cccc(Nc2ncc(C(F)(F)F)c(NCC3CC3)n2)c1` (stereo not drawn) [Example 44], for which the log p (pH 2.7) was 2.3[b]. Same read-out and setting: under `CCCN(c1nc(Nc2cccc(COC)c2)ncc1Cl)C1CC1` [Example 136] stands 3.68[b]. For `COCCOc1ccc(Nc2ncc(C(F)(F)F)c(NC3CC3)n2)cc1C` [Example 157], the chromatographic logP is 2.14.

Regarding `COCC(C)Oc1ccc(Nc2ncc(Cl)c(NC3CC3C(F)(F)F)n2)cc1` (stereo not drawn) [Example 221], the log p (pH 2.7) is 2.48[b]. With `CCSC(C)c1cccc(Nc2ncc(Br)c(NC3CC(C)C3)n2)c1` (stereo not drawn) [Example 214], the log p (pH 2.7) was 3.85[b]. On the same count and under the same terms, under `COC(c1cccc(Nc2ncc(Cl)c(NC3CCC3)n2)c1)C(F)(F)F` (stereo not drawn) [Example 21] stands 2.99[b]. The compound `CCC(C)CNc1nc(Nc2cccc(COC)c2)ncc1Cl` (stereo not drawn) [Example 145] returned a chromatographic logP of 2.37. Consider `CCS(=O)(=O)C(C)c1cccc(Nc2ncc(C(F)(F)F)c(NCC3CC3)n2)c1` (stereo not drawn) [Example 41], for which the log p (pH 2.7) is 2.65[b]. On the same count and under the same terms, the same measure for `CCS(=O)(=O)C(C)c1cccc(Nc2ncc(C(F)(F)F)c(NC3CCCC3)n2)c1` (stereo not drawn) [Example 39]: 3.27[b]. Same read-out and setting: under `C=C(C)CSc1cccc(Nc2ncc(Cl)c(NC3CC3)n2)c1` [Example 38] stands 3.59[b]. Still for that read-out and setting: under `COCCOCCOc1ccc(Nc2ncc(C(F)(F)F)c(NC3CC3)n2)cc1Cl` [Example 156] stands 3.2[b]; under `FC(F)(F)COCc1cccc(Nc2ncc(Cl)c(NC3CC3)n2)c1` [Example 224], 2.56[b]. Turning to `CCN(c1nc(Nc2cccc(COC)c2)ncc1Cl)C(C)C` [Example 140], the chromatographic logP came to 3. With `CCSC(C)c1cccc(Nc2ncc(Cl)c(NC3CCC3)n2)c1` (stereo not drawn) [Example 11], the log p (pH 2.7) is 3.25[b]. Same read-out and setting: the same measure for `COCCOc1cccc(Nc2ncc(Cl)c(NC3CC3C(F)(F)F)n2)c1` (stereo not drawn) [Example 210]: 2.66[b]; for `COCC(C)Oc1ccc(Nc2ncc(Br)c(NC3CC3)n2)cc1Cl` (stereo not drawn) [Example 4]: 2.75[b]; for `CCOCCOCc1cccc(Nc2ncc(Cl)c(NC3CC3)n2)c1` [Example 252]: 2.51[b].

Regarding `COCCOCCOc1ccc(Nc2ncc(Cl)c(NC3CC3)n2)cc1Cl` [Example 173], the log p (pH 2.7) was 2.12[b]. The same measure, in the same setting: the same measure for `FC(F)C(F)(F)COCc1cccc(Nc2ncc(Cl)c(NC3CC3)n2)c1` [Example 232]: 2.69[b]. The same measure, in the same setting: under `CCSC(C)c1cccc(Nc2ncc(Cl)c(NC3CC3C(F)(F)F)n2)c1` (stereo not drawn) [Example 223] stands 3.93[b]. Take `CCCC(C)Nc1nc(Nc2cccc(COC)c2)ncc1Cl` (stereo not drawn) [Example 143]: the chromatographic logP was 2.41. Turning to `COCc1cccc(Nc2ncc(Cl)c(NC3CC3C(F)(F)F)n2)c1` (stereo not drawn) [Example 208], the log p (pH 2.7) was 2.64[b]. Same read-out and setting: the same measure for `COCc1cccc(Nc2ncc(Cl)c(N3CCCCCC3)n2)c1` [Example 139]: 2.88[b]; for `CS(=O)(=O)Cc1cccc(Nc2ncc(Cl)c(NC3CC3C(F)(F)F)n2)c1` (stereo not drawn) [Example 222]: 1.96[b]. Take `CCOCCOc1ccc(Nc2ncc(C(F)(F)F)c(NC3CC3)n2)cc1Cl` [Example 184]: the chromatographic logP is 3.72. For `COCC(C)Oc1ccc(Nc2ncc(Cl)c(NC3CC3)n2)cc1C(F)(F)F` (stereo not drawn) [Example 72], for the setting “pH 2.7”, the log p is 2.91[b]. As to `CCOCCOc1ccc(Nc2ncc(C(F)(F)F)c(NC3CC3)n2)cc1C(F)(F)F` [Example 186], the chromatographic logP came to 4.09. On to `COCCOCCOc1ccc(Nc2ncc(Br)c(NC3CC3)n2)cc1` [Example 2], for which the log p (pH 2.7) was 1.69[b].

On to `FC(F)C(F)(F)COCc1cccc(Nc2ncc(C(F)(F)F)c(NC3CC3)n2)c1` [Example 231], for which the log p (pH 2.7) is 3.7[b]. Take `COC(C)c1cccc(Nc2ncc(Br)c(NC3CC(C)C3)n2)c1` (stereo not drawn) [Example 212]: the log p under setting [1] was 2.84[b]. On to `COCc1cc(COC)cc(Nc2ncc(Cl)c(NC3CCC3)n2)c1` [Example 47], for which the log p (pH 2.7) is 2.06[b]. In the case of `COCc1cccc(Nc2ncc(Br)c(NC3CC(C)C3)n2)c1` (stereo not drawn) [Example 200], the log p under setting [1] is 2.55[b]. As for `CCOCCOCc1cccc(Nc2ncc(C(F)(F)F)c(NC3CC3)n2)c1` [Example 253], the log p (pH 2.7) was 2.73[b].

For `CCOCCOCc1cccc(Nc2ncc(C(F)(F)F)c(NC3CC3)n2)c1` [Example 250], the chromatographic logP was 3.17. With `COCCOc1ccc(Nc2ncc(Cl)c(NC3CC3)n2)cc1C` [Example 174], the chromatographic logP was 1.43. In the case of `CCS(=O)(=O)C(C)c1cccc(Nc2ncc(C(F)(F)F)c(NC3CC3)n2)c1` (stereo not drawn) [Example 46], the log p (pH 2.7) is 2.49[b]. `COCc1cccc(Nc2ncc(Cl)c(NCCC(C)C)n2)c1` [Example 146] came in with a chromatographic logP of 2.37.

What is called chromatographic logP is a lipophilicity value derived from retention on a column.
